Test results reported in publication PMC8175350, “Drug repurposing screens identify chemical entities for the development of COVID-19 interventions” (Nature Communications, 2021).
Structures can show the parent of a compound that is named as a salt. Where two headings read alike, the source gives them in different places.

Assays:
HeLa-ACE2 cells [1] = assay: cells; settings: Homo sapiens; for Emax: HeLa-ACE2, 24 h, read-out: HeLa-ACE2 cell count Sinf Average; for EC50: HeLa-ACE2, read-out: HeLa-ACE2 cell count EC50 GeoMean
HeLa-ACE2 cells [2] = assay: Uninfected HeLa-ACE2 24 h live/dead cytotoxicity counter screen; assay type: cell-based, human
[3] = as above; assay type: cell-based, human; settings: human, uninfected HeLa-ACE2 cells
SARS-CoV-2 [4] = assay: microbe, parasite or virus in culture; assay type: cell-based; settings: for Emax: Severe acute respiratory syndrome coronavirus 2, HeLa-ACE2, 10 h, read-out: HeLa-ACE2 TOA CoV-2 Sinf Average; for EC50: read-out: HeLa-ACE2 TOA CoV-2 EC50 GeoMean
HEK293T [5] = settings: human
Calu-3 cells [6] = settings: for Calu-3 uninfected cytotoxicity Sinf Average: human
in vitro = settings: human
Calu-3 cells [7] = assay: cells; settings: Homo sapiens; for Emax: Calu-3, 48 h, read-out: Calu-3 cell count Sinf Average; for EC50: Calu-3, read-out: Calu-3 cell count EC50 GeoMean
HeLa-ACE2 cells [8] = assay: Total cell count in the HeLa-ACE2 TOA assay; assay type: cell-based; settings: Homo sapiens; for EC50: HeLa-ACE2, read-out: HeLa-ACE2 TOA cell count EC50 GeoMean; for Emax: HeLa-ACE2, 10 h, curve plateau at infinite concentration, read-out: HeLa-ACE2 TOA cell count Sinf Average
Text: Supplement 41467_2021_23328_MOESM3_ESM.xlsx, sheet "Table S1" | column: HeLa-ACE2 TOA cell count

SARS-CoV-2 [9] = assay: microbe, parasite or virus in culture; assay type: cell-based
HepG2 [10] = settings: human
SARS-CoV-2 [11] = assay: microbe, parasite or virus in culture; assay type: cell-based; settings: for Emax: Severe acute respiratory syndrome coronavirus 2, Calu-3, 48 h, read-out: Calu-3 CoV-2 Sinf Average
HEK293T [12] = assay: HEK293T 72 h CellTiter-Glo cytotoxicity; settings: 72 h
[13] = HEK293T 72 h CellTiter-Glo cytotoxicity; settings: human, HEK293T cells
HepG2 [14] = assay: HepG2 72 h CellTiter-Glo cytotoxicity; settings: 72 h
[15] = HepG2 72 h CellTiter-Glo cytotoxicity; settings: human, HepG2 cells
Calu-3 cells [16] = assay: Uninfected Calu-3 48 h Cell-Titer Glo cytotoxicity counter screen
[17] = as above; settings: human, uninfected Calu-3 cells
SARS-CoV-2 [18] = assay type: cell-based; settings: combination with remdesivir, synergy score δ
[19] = curve plateau at infinite concentration
[20] = read-out: HeLa-ACE2 uninfected cytotoxicity CC50 GeoMean
[21] = Severe acute respiratory syndrome coronavirus 2, HeLa-ACE2, detail column
[22] = Calu-3 uninfected cytotoxicity CC50 GeoMean
[23] = Severe acute respiratory syndrome coronavirus 2, HeLa-ACE2, 24 h, curve plateau at infinite concentration; read-out: HeLa-ACE2 CoV-2 Sinf Average
[24] = Severe acute respiratory syndrome coronavirus 2, HeLa-ACE2; read-out: HeLa-ACE2 CoV-2 EC50 GeoMean
[25] = Severe acute respiratory syndrome coronavirus 2, Calu-3, read-out: Calu-3 CoV-2 EC50 GeoMean
[26] = Severe acute respiratory syndrome coronavirus 2, HeLa-ACE2
[27] = Severe acute respiratory syndrome coronavirus 2, HeLa-ACE2, detail column; read-out: HeLa-ACE2 CoV-2 EC50 GeoMean
[28] = Severe acute respiratory syndrome coronavirus 2, Calu-3, detail column, read-out: Calu-3 CoV-2 EC50 GeoMean

Row | SMILES | Emax (HeLa-ACE2 cells [1]) [%] | EC50 (HeLa-ACE2 cells [1]) [nM] | HeLa-ACE2 uninfected cytotoxicity Sinf Average (HeLa-ACE2 cells [2]; [19]) [%] | CC50 at 24 h [3, 20] [µM] | Emax (SARS-CoV-2 [4]; [19]) [%] | Emax (Calu-3 cells [7]) [%] | EC50 (Calu-3 cells [7]) [µM] | EC50 (HeLa-ACE2 cells [8]) [µM] | Emax (SARS-CoV-2 [9]; [23]) [%] | Emax (SARS-CoV-2 [11]; [19]) [%] | HEK293T 72-hour cytotoxicty Sinf Average (HEK293T [12]) [%] | CC50 at 72 h [13] [µM] | HepG2 72-hour cytotoxicity Sinf Average (HepG2 [14]) [%] | CC50 at 72 h [15] [µM] | Calu-3 uninfected cytotoxicity Sinf Average (Calu-3 cells [16]; [19]) [%] | EC50 (SARS-CoV-2 [4]; [26]) [nM] | EC50 (SARS-CoV-2 [9]; [27]) [nM] | CC50 at 48 h [17, 22] [µM] | EC50 (SARS-CoV-2 [11]; [28]) [µM] | Emax (HeLa-ACE2 cells [8]) [%] | also measured
1 | C[C@H]1O[C@@H](O[C@H]2[C@@H](O)C[C@H](O[C@H]3[C@@H](O)C[C@H](O[C@H]4CC[C@@]5(C)[C@H](CC[C@@H]6[C@@H]5C[C@@H](O)[C@]5(C)[C@@H](C7=CC(=O)OC7)CC[C@]65O)C4)O[C@@H]3C)O[C@@H]2C)C[C@H](O)[C@@H]1O [Digoxin] | 101 | 325 | -98 | 0.12 | 89 | -100 | > 9.95 | > 9.59 | 100 | 83 |  |  |  |  |  |  |  |  |  |  | EC50 (SARS-CoV-2 [4]; [21]): 792 nM; HEK293T 72-hour cytotoxicty Sinf Average (HEK293T [5]): -101%; Calu-3 uninfected cytotoxicity Sinf Average (Calu-3 cells [6]): -38%; CC50 (in vitro; [22]): > 5.04 µM; EC50 (SARS-CoV-2 [9]; [24]): 166 nM; HepG2 72-hour cytotoxicity Sinf Average (HepG2 [10]): -102%; EC50 (SARS-CoV-2 [11]; [25]): 0.169 µM
2 | CN1CC2c3ccccc3Oc3ccc(Cl)cc3C2C1 (stereo not shown) [Asenapine maleate] |  |  | -100 |  | 100 |  |  |  | 97 | 100 | -100 | 23.3 | -100 | 19.9 | -100 |  |  |  |  |  | CC50 at 24 h ([3]; detail block, read-out: HeLa-ACE2 uninfected cytotoxicity CC50 GeoMean): > 35.6 µM; CC50 at 48 h [17]: > 29.9 µM
3 | COc1ccc(C[C@H](N)C(=O)N[C@H]2[C@@H](O)[C@H](n3cnc4c(N(C)C)ncnc43)O[C@@H]2CO)cc1 [Puromycin - cytotoxicity control] | 101 | 1550 | -100 | 0.658 | 103 | -100 | > 10 | > 9.62 | 100 | 97 | -101 | 0.829 | -101 | 1.08 | -101 | 316 | 480 | 3.95 | 2.74 |  | 
4 | Cc1ccc(NC(=O)c2ccc(CN3CCN(C)CC3)cc2)cc1Nc1nccc(-c2cccnc2)n1 [Imatinib mesylate] |  |  |  |  |  | 100 |  |  |  |  | -100 | 15.2 | -100 | 12.9 |  |  |  | > 29.9 |  |  | Emax (SARS-CoV-2 [9]; Severe acute respiratory syndrome coronavirus 2, HeLa-ACE2, 24 h; read-out: HeLa-ACE2 CoV-2 Sinf Average): 100%; Calu-3 uninfected cytotoxicity Sinf Average (Calu-3 cells [16]; human, uninfected Calu-3 cells, 48 h): -100%; Emax (SARS-CoV-2 [11]): 100%
5 | Nc1ncnc2c1nc(Cl)n2[C@@H]1O[C@H](CO)[C@@H](O)[C@H]1O [8-Chloroadenosine] |  | > 9590 | -87 | > 11.9 | 98 | 99 | > 9.98 | > 9.59 | 98 | 96 |  |  |  |  |  | 1070 |  |  | 4.94 | 100 | CC50 at 24 h ([3]; reconfirmed hits, read-out: HeLa-ACE2 Uninf. cells CC50): > 11.9 µM; HEK293T 72-hour cytotoxicty Sinf Average (HEK293T [5]; 72 h): -98%; uninfected Calu-3 CC50 (Calu-3 cells [6]): > 27.747 ×÷ 1.135 (n=3) μM; Calu-3 uninfected cytotoxicity Sinf Average (Calu-3 cells [6]; 48 h): -92%; CC50 at 48 h (in vitro; Calu-3 Uninf. cells CC50 (µM)): > 27.8 µM; CC50 at 48 h (in vitro; [22]): > 27.7 µM; EC50 (SARS-CoV-2 [9]; Severe acute respiratory syndrome coronavirus 2, HeLa-ACE2, reconfirmed hits; read-out: HeLa-ACE2 SARS-CoV-2 EC50): 927 nM; HepG2 72-hour cytotoxicity Sinf Average (HepG2 [10]; 72 h): -69%; EC50 (SARS-CoV-2 [11]; Severe acute respiratory syndrome coronavirus 2, Calu-3, reconfirmed hits, read-out: Calu-3 SARS-CoV-2 EC50): 4.94 µM
6 | NC1(c2ccc(-c3nc4ccn5c(=O)[nH]nc5c4cc3-c3ccccc3)cc2)CCC1 [MK-2206] |  | > 9590 | -100 | > 22.8 | 100 | -100 | > 9.98 | > 9.59 | 99 | 82 | -102 | 3.88 | -100 | 7.59 | -100 | > 9390 | 1100 | 8.7 | > 4.9 |  | EC50 ratio between the standard 24 h and the TOA assay (SARS-CoV-2 [4]): > 8; HeLa-ACE2 synergy score with remdesivi [δ] (SARS-CoV-2 [18]): 2.087; SI in Calu-3 (SARS-CoV-2 [11]): < 2
7 | COc1cc2c(Nc3ccc(Cl)c(Cl)c3F)ncnc2cc1OC[C@@H]1C[C@@H]2CN(C)C[C@@H]2C1 [Tesevatinib, XL647, Kadmon Corporation] | 100 | > 8160 | -100 | > 20.6 | 100 | -100 | > 9.97 | > 9.59 | 101 | 100 | -102 | 2.67 | -103 | 3.15 | -105 | > 7600 | 2440 | 3.52 | 3.32 | -100 | 
8 | CNC(=O)c1cc(Oc2ccc(NC(=O)Nc3ccc(Cl)c(C(F)(F)F)c3)cc2)ccn1 [Sorafenib] | 100 | > 8310 | -99 | > 8.65 | 99 | 100 | > 9.36 | > 9.61 | 100 | 100 | -107 | 3.34 | -101 | 7.15 | -88 |  |  |  |  | 100 | EC50 (SARS-CoV-2 [4]; [21]): 3510 nM; EC50 (SARS-CoV-2 [9]; [24]): > 5680 nM; CC50 at 48 h [17]: 5.3 µM; EC50 (SARS-CoV-2 [11]; [25]): > 5.2 µM
9 | CCCCc1oc2ccccc2c1C(=O)c1cc(I)c(OCCN(CC)CC)c(I)c1 [Amiodarone] | 100 |  |  |  |  | 100 |  |  |  |  | -100 | 10.9 | -100 |  |  |  |  |  |  |  | HeLa-ACE2 uninfected cytotoxicity Sinf Average (HeLa-ACE2 cells [2]; human, uninfected HeLa-ACE2 cells, 24 h): -101%; Emax (SARS-CoV-2 [4]): 100%; Emax (SARS-CoV-2 [9]; Severe acute respiratory syndrome coronavirus 2, HeLa-ACE2, 24 h, read-out: HeLa-ACE2 CoV-2 Sinf Average): 96%; Emax (SARS-CoV-2 [11]): 100%
10 | COc1ccc2c(c1)[C@]1(C[C@H]1c1ccc3c(/C=C/c4ccc(CN5C[C@@H](C)O[C@@H](C)C5)cc4)n[nH]c3c1)C(=O)N2 [CFI-400945] | 53 | > 117 | -100 | 7.18 | 100 | 100 | 4.75 | > 9.59 | 100 | 100 |  |  |  |  |  | 4570 | > 7000 |  | 3.36 | 100 | HEK293T 72-hour cytotoxicty Sinf Average (HEK293T [5]; 72 h): -95%; uninfected Calu-3 CC50 (Calu-3 cells [6]): > 19.756 ×÷ 1.816 (n=3) μM; Calu-3 uninfected cytotoxicity Sinf Average (Calu-3 cells [6]; 48 h): -98%; CC50 at 48 h (in vitro; [22]): > 19.8 µM; HepG2 72-hour cytotoxicity Sinf Average (HepG2 [10]; 72 h): -100%
